Experimental findings from PMC12518693, “Potent Fluorescent Probe for Target‐Engagement Studies of Allosteric Pyruvate Kinase Modulators” (Angewandte Chemie (International Ed. in English), 2025) are described below.

Where “and” joins values, the source holds several entries; their conditions need not be identical. Equal values may be shown once.

The target in one data set is PKLNluc (Homo sapiens, UniProt P30613). The data set can be described thus: Live-cell NanoBRET assay in HEK293 cells. The format is cell-based. On the set-up: host or cells: HEK293, transient transfection. Here is the method:
To investigate the intracellular interaction of tracer IV with PKLNluc, we prepared a mammalian expression construct, fusing Nluc to the N‐terminus of PKL. […] As a negative control for NanoBRET experiments, a construct expressing Nluc alone (without PKL) was also prepared.
Additionally, cell viability assays were conducted on cells transfected with either PKLNluc or Nluc plasmids and incubated with tracer IV (Figure S4b,c).
HEK293 cells were passed one day before transfection. The concentration of cells was adjusted to 2x10^5 cells/ml in Opti-MEM™ without phenol red (Invitrogen) supplemented with 1% FBS (Hyclone). Cells (4x10^6) were reversed transfected with 1 µg of PKLNluc plasmid or 1 µg Nluc plasmid and 9 µg of carrier DNA (Promega) using 30 µL of Fugene HD transfection reagent (Promega). […] Work solutions (100x) of tracer IV were prepared from DMSO stocks and further diluted to 20x concentrations with Tracer buffer (Promega). Twenty-five hours after transfection, the cells were treated with 5 µL/well of each of 20x concentrations of the tracer (final concentrations in the assay were in the range 0.001-1 µM, depending on the experiment). Thereafter, 10 µL of 10x solutions of competitors (diluted in Opti-MEM™ medium from stocks of 100x prepared in DMSO) were added to some sets of cells, while the other set received only Opti-MEM™ containing 1% DMSO. The cells were incubated for 2 h at 37°C (5% CO2). […] For each sample well, BRET ratios were calculated using the following formula:
BRET ratio mBU= AcceptorSDonorS-AcceptorNTDonorNT
Where AcceptorS is the luminescence intensity of the sample well at 550 nm, DonorS is the luminescence of the sample well at 450 nm, and AcceptorNT and DonorNT are the luminescence of the no-tracer control at 550 nm and 450 nm respectively.
(In BRET a luciferase serves as donor, and the signal depends on an acceptor being close.)

In another data set the test system is HEK293 cells. The data set can be described thus: HEK293 cell viability assay (CellTiter-Glo 2.0). It is filed as cell-based. As to conditions: 2 h. Here is the method:
Finally, the effects of tracer IV on cell viability were assessed. HEK293 cells were treated with IV at concentrations of 0, 0.01, 0.1, 1, and 10 µM for 2 h, after which cells were lysed, and intracellular ATP levels were quantified using the CellTiter‐Glo 2.0 assay (Figure S8a).
Figure S8. Cell viability assay (CellTiter-Glo 2.0) of HEK293 cells treated with different concentrations of tracer IV. (A) Cell viability assay performed on HEK293 cells incubated for 2 h with different concentrations of tracer IV or DMSO (0 nM IV) in FluoroBrite™ DMEM complete medium. Results are reported as relative luminescence values (mean ± SE, n=4, One Way ANOVA followed by Dunnett´s multiple comparison test). […] Results are reported as relative luminescence values (mean ± SE, n=4, One Way ANOVA followed by Dunnett´s multiple comparison test). […] Results are reported as relative luminescence values (mean ± SE, n=4, One Way ANOVA followed by Dunnett´s multiple comparison test).
The effect of tracer IV on cell viability was assessed using CellTiter-Glo 2.0 assay (Promega). This is a method that determines the number of viable cells by quantifying the amount of ATP in the metabolically active cells. […] Mono-oxygenation of luciferin catalyzed by luciferase in the presence of ATP will generate light which could be measured by luminometer. […]
On the technique in general: Cellular ATP, detected with luciferase, serves as a proxy for viable cell number.

The next data set deals with PKL (Homo sapiens, UniProt P30613). The data set can be described thus: Surface plasmon resonance, PKL. (In general: Surface plasmon resonance follows binding to a sensor surface in real time, without labels.)
Chain of PKL (P30613 1-543 isoform P30613-2): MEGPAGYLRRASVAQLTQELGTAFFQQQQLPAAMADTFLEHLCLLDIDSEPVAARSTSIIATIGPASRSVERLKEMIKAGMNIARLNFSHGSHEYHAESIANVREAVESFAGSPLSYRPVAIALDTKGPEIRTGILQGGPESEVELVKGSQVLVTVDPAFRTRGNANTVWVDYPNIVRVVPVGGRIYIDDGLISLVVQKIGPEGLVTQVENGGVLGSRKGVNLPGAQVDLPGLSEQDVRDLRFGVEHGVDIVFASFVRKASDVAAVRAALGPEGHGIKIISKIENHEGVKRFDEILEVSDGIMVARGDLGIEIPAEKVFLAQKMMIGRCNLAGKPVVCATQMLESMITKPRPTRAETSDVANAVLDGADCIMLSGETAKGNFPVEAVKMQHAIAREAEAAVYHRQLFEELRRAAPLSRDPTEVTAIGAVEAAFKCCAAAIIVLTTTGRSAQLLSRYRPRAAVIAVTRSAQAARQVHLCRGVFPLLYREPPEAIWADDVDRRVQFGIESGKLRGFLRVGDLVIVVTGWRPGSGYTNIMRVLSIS

Chain of PKLNluc (P30613 1-543 isoform P30613-2): as above

Turning to `CN(C)c1ccc(S(=O)(=O)c2ccc3c(=O)n(Cc4cc[nH]n4)ncc3c2)c2nonc12` [Compound IV, 2-((1H-Pyrazol-3-yl)methyl)-6-((7-(dimethylamino)benzo[c][1,2,5]oxadiazol-4-yl)sulfonyl)phthalazin-1(2H)-one], at PKLNluc (HEK293, PKLNluc), the “tracer concentration above which nonspecific binding signals emerged” value is “exceeding 400 nM”. The EC50 at PKLNluc (HEK293 transfected with PKLNluc, 2 h 37 °C, displacement control (20 µM mitapivat) subtracted, read-out: EC50 (cell), tracer titration, specific BRET signal) amounted to 18.4 nM. Further, in the data set on HEK293 cells (HEK293, 0.01-10 µM), the “effect on cell viability (intracellular ATP)” value is “does not affect cell viability”. The “effect on viability of transfected cells” value in the data set with HEK293 cells (HEK293 transfected with PKLNluc or Nluc plasmids, up to highest tested concentration) is “did not affect the viability”. For the same compound, the Kd (in general, a measure of binding affinity in units of concentration) is 37 ± 1 nM at PKL (K D SPR (PKL), 20 °C, mean ± SE n=3); 38.8 nM and 36.9 nM on PKL (KD, independent replicates, single cycle kinetics, 1:1 Langmuir fit, Figure S14). Besides, the “PKL selectivity over PKM2” value on PKL (SPR K D PKM2 vs PKL) is reported as 37 fold. At PKL (read-out: k off SPR (PKL)), the koff was 0.00617 s⁻¹. For the same compound, at PKL (read-out: k on SPR (PKL)), the kon was 168000 M⁻¹ s⁻¹.
